Patent US20260248767A1, “METHODS FOR INDUCING FERROPTOSIS IN CANCER” (Board of Regents, The University of Texas System, priority 2023, published 2026)

What was measured:
NADP+/NADPH = assay: NADP+ and NADPH measurement; type: cell-based; details: treated vs untreated cells
cells = assay: Metabolomic analysis of vehicle or sulfite treated cells; type: cell-based
Procedure: Metabolomic analysis was performed in vehicle or sulfite treated cells. An increase in the levels of 6-phospho-D-Gluconate (FIG. 3C), ribose phosphate (FIG. 3D), D-Glyceraldehyde 3-phosphate (FIG. 3E), D-sedoheptulose-1/7 phosphate (FIG. 3F), NDAP+/NADPH ratio (FIG. 3G), oxPPP shunting (FIG. 3H) were observed.
Metabolomic analysis was performed as previously described (Liu, X. et al. Nat Cell Biol 22, 476-486, doi: 10.1038/s41556-020-0496-x (2020)). Cells were seeded on 35-mm culture plates at a density sufficient to ensure approximately 70-80% confluence at the time of extraction. Metabolites were extracted at the indicated time points for subsequent analyses. Metabolites were extracted by rapidly aspirating the culture medium and then adding 500 μl of an 80% methanol: 20% water mixture at dry ice temperature. The plates were incubated on dry ice for 15 min before the cells were scraped into pre-chilled Eppendorf tubes. The cell debris was pelleted by centrifugation at 13,000 ref for 5 min at 4° C. and the supernatant was transferred into a fresh tube and stored on dry ice until analysis. Just before analysis, 500 μl of extract was dried under nitrogen gas flow and then resuspended in 100 μl water.
(§1) The complete platform consists of an Accela 1250 HPLC system, Accela Open Autosampler, MayLab Mistraswitch column oven and Exactive orbitrap mass spectrometer, controlled by the Xcalibur 3.0.63 software package. Chromatography was performed with a Phenomenex Synergi Hydro-RP column (100×2 mm, 2.5 μm particle size). Solvent A is 10 mM tributylamine and 15 mm acetic acid in water; Solvent B is methanol. The gradient is: 0 min, 0% B; 2.5 min, 0% B; 5 min, 20% B; 7.5 min, 20% B; 13 min, 55% B; 15.5 min, 95% B; 18.5 min, 95% B; 19 min, 0% B; 25 min, 0% B. The injection volume was 10 μl. The column temperature was set to 40° C., and the flow rate was 200 μl/min. The Exactive was operated in negative ionization mode with an electrospray ionization interface. The instrument parameters are as follows: sheath gas flow rate 30 (arbitrary units), aux gas flow rate 10 (arbitrary units), sweep gas flow rate 3 (arbitrary units), spray voltage 3 kV, capillary temperature 325° C., capillary voltage −25 V, tube lens voltage −50 V. The scan range was set to 80-1,000 m/z, with a maximum inject time of 250 ms, resolution of 100,000 at 1 Hz, and AGC (automatic gain control) target 1×10^6. The data were analyzed using the MAVEN software suite with signal intensity determined as the Peak Area (Top). For metabolic labelling experiments, the data were corrected to account for the natural abundance of nitrogen-15 using IsoCorrectoR (Heinrich, P. et al. Sci Rep 8, 17910, doi: 10.1038/s41598-018-36293-4 (2018)).

HT-1080 cells = assay: Relative mitochondrial lipid peroxidation level; type: cell-based, human; details: combined with RSL3, compared to RSL3 alone
one-carbon metabolism = assay: dTTP levels and labelling (serine through one-carbon metabolism); type: cell-based; details: sulfite vs vehicle treated samples, over time
Procedure: The total dTTP, M+1dTTP and M+2 dTT were measured in the presence or absence of sulfite.
as §1

MTHFD2 = assay: Protein level after sulfite treatment (Western blotting), MTHFD2; type: cell-based; details: following treatment with sulfite
Procedure: (§2) To test if sulfite changed mitochondrial protein levels, SHMT2 and MTHFD2 protein levels were measured following treatment with sulfite. No changes in protein levels were observed (FIG. 9).
(§3) Briefly, cells were lysed in NP-40 lysis buffer (50 mM Tris [pH 7.4], 250 mM NaCl, 5 mM EDTA, 50 mM NaF, 1 mM Na3VO4, 1% Nonidet P40) containing complete mini protease inhibitors (Roche). The protein concentration of lysates was quantified using BCA Protein Assay Kit from Life Technologies (#23227). 20 μg of total protein was loaded into SDS-PAGE gel and transferred to a PVDF membrane (Bio-Rad) using standard techniques. The primary antibodies and concentrations used for Western blotting were Vinculin (1:1000, Sigma-Aldrich, #V4505), SUOX (1:1000, Abcam, #ab129094), SHMT2 (1:1000, Sigma-Aldrich, #HPA-020549), IDH1 (1:1000, Proteintech, #12332-1-AP), ME1 (1:1000,), MTHFD2 (1:1000, Abcam, #ab56772), Flag (1:1000, Sigma, #F1804), GPX4 (1:1,000, R&D, #MAB5457), COQ2 (1:1,000, Santa Cruz, sc-517107) and FSP1 (1:1000, Proteintech, #20886-1-AP).

SHMT2 = assay: Protein level after sulfite treatment (Western blotting), SHMT2; type: cell-based; details: following treatment with sulfite
Procedure: as §2, §3

[1] = sulfite vs vehicle treated cells

O=S([O-])[O-].[Na+].[Na+] [sulfite, sodium sulfite]
No changes: MTHFD2 protein level (MTHFD2) | SHMT2 protein level (SHMT2)
significantly increased: relative mitochondrial lipid peroxidation level in combination with RSL3 (HT-1080 cells)
increase: NADP+/NADPH ratio (NADP+/NADPH) | Levels of S-sulfocysteine (cells; sulfite treated samples) | level of 6-phospho-D-Gluconate (cells; [1]) | level of D-Glyceraldehyde 3-phosphate (cells; [1]) | level of D-sedoheptulose-1/7 phosphate (cells; [1]) | level of ribose phosphate (cells; [1])
decreased over time: M+1dTTP (one-carbon metabolism) | M+2 dTT (one-carbon metabolism) | total dTTP (one-carbon metabolism)
